Measured values as given in patent publication US12257251B2, “Use of FAK inhibitor in preparation of drug for treating tumors having NRAS mutation” (INXMED (NANJING) CO., LTD., priority 2019, dated 2025).

Columns and labels:
[1] = system: human esophageal cancer cell line KYSE-270; experiment: Subcutaneous xenograft of human esophageal cancer cell line KYSE-270 in NMRI nude mice: tumor growth; format: in vivo, mouse; details: for Tumor shrinkage [x/y]: Paclitaxel 10 mg/Kg q7d
Method: 1.1. Model: Subcutaneous xenograft of human esophageal cancer cell line KYSE-270 in NMRI nude mice.
1.3. Cells: KYSE-270 is an esophageal cancer cell line (Public Health England, catalog number: 94072021). Cells were cultured in T175 tissue culture flasks containing 5% CO2 at 37° C. The medium was RPMI 1640+HAM F12 (1:1) supplemented with 2% FCS and 2 mM Glutamax. Passage was performed three times a week at a ratio of 1:2.
1.4. Mice: Mice were 8 to 10 week old female mice (BomTac: NMRI-Foxn1^nu) purchased from Taconic®, Denmark. Upon arrival in the animal room, the mice were allowed to acclimate for at least 5 days before being used for assay. The animals were housed under standard conditions (temperature: 21.5±1.5° C., humidity: 55+10%), 7 to 10 mice for each group. A standard diet and autoclaved tap water were provided for ad libitum feeding. A subcutaneous microchip implanted under isoflurane anesthesia was used to identify each mouse.
1.5. Random establishment of tumors: To establish subcutaneous tumors, KYSE-270 cells were harvested by centrifugation, washed and resuspended in PBS+5% FCS at a concentration of 5×10^7 cells/ml. Then 100 l of cell suspension containing 5×10^6 cells was injected subcutaneously into the right flank of mice (1 site per mouse). When tumors were well established and reached a volume of 94 to 252 mm^3, mice were randomly assigned to the treatment group and the control group (13 days after cell injection).
1.6. Administration: BI 853520 was suspended in 0.5% hydroxyethyl cellulose, which was administered intragastrically through gavage needle every day, and the dosage was 10 mL/Kg body weight. Paclitaxel was dissolved in saline (0.9% NaCl), which was administered intravenously in a volume of 10 ml/kg body weight. The suspension of BI853520 could be used for up to 7 days. Paclitaxel solution was stored at 6° C. and used for up to 14 days.
(§1) 1.7. Monitoring tumor growth and side effects: Tumor diameters were measured with calipers three times a week. The volume [mm^3] of each tumor was calculated according to the equation “tumor volume=length×diameter^2×π/6”. To monitor the side effects of the treatment, the mice were checked daily for abnormalities and their body weights were measured three times a week. For ethical reasons, animals with tumors larger than 1.5 cm in diameter, ulcerated tumors, or 20% body weight loss were euthanized.
Statistical assessment of tumor volume and body weight on day 13 was performed. Animal number 1 (control group) was excluded from the statistical evaluation because of weight loss and had to be euthanized early (day 9). Measured tumor volume was used as the target variable in the statistical analysis. The number of animals and the median, minimum and maximum tumor volumes in each group were calculated. For a quick overview of possible treatment effects, the median tumor volume for each treatment group T and the median tumor volume for the control group C were used to calculate TGI: TGI=100×[(Cd−C1)−(Td−T1)]/(Cd−C1) • wherein, C1, T1=median tumor volume in control and treatment groups at the start of the assay (day 1). • Cd, Td=median tumor volume in control and treatment groups at the end of the assay (day 13).
(§2) The wilcoxon test was used for comparison. For body weight, the percent change relative to initial body weight on day 1 was used as the target variable for statistical analysis. The number of animals, and the median, minimum and maximum weight changes in each group were calculated.
(§3) One-sided test to compare all treatment groups with control group was performed for observing: • reduction in tumor volume (inhibition of tumor growth, efficacy parameter) and • reduction in weight changes (weight loss, tolerance parameters).
Within each subtopic, p-values for the efficacy parameter were compared and adjusted for multiple times according to Bonferroni-Holm. The p-value for the tolerance parameter was kept constant so as not to overlook possible side effects. […]

[2] = Body weight change (tolerability) in the KYSE-270 xenograft study; format: in vivo, mouse
Method: as §1, §2, §3
Within each subtopic, p-values for the efficacy parameter were compared and adjusted for multiple times according to Bonferroni-Holm. The p-value for the tolerance parameter was kept constant so as not to overlook possible side effects. Significance level was fixed at α=5%. A p-value (adjusted) of less than 0.05 was considered to show a statistically significant difference between groups, and 0.05≤p-value<0.10 was considered as an indicative difference. Statistical evaluations were performed using the SAS software package version 9.4 (SAS Institute Inc., Cary NC, USA).

CC(=O)O[C@H]1C(=O)[C@@]2(C)[C@H]([C@H](OC(=O)c3ccccc3)[C@]3(O)C[C@H](OC(=O)[C@H](O)[C@@H](NC(=O)c4ccccc4)c4ccccc4)C(C)=C1C3(C)C)[C@]1(OC(C)=O)CO[C@@H]1C[C@@H]2O [Paclitaxel, reference compound]
Tumor shrinkage [x/y] ([1]; day 13): 0/7 | Tumor shrinkage [x/y] ([1]; day 13, listed as paclitaxel): none | TGI ([1]; Paclitaxel 10 mg/Kg q7d i.v., day 13): 2% | Median tumor volume ([1]; paclitaxel 10 mg/kg once a week, day 13 (start 190 mm^3)): 1033 mm^3 | Change in median weight ([2]; Paclitaxel 10 mg/Kg q7d, day 13 versus day 1): −9.7% | Reduction in the median body weight ([2]; Paclitaxel 10 mg/kg once a week, day 13, given as a decrease): 9.7%
